Reference: patent US20260209260A1, “VECTORIZED NHC IRIDIUM(III) COMPLEXES AND USE THEREOF IN PHOTODYNAMIC THERAPY AND/OR DIAGNOSTIC” (CENTRE NATIONAL DE LA RECHERCHE SCIENTIFIQUE, priority 2022, published 2026)
Values joined by “and” are separate entries in the source; they are usually repeats but may differ in a detail not shown here. Identical values can stand only once. Like-named read-outs stand apart in the source and are kept apart here.

Columns and labels:
Format in all cases: cell-based, Human
A549 lung cancer cells = assay: Cell viability assay (MTT), dark and blue light; conditions: for SI (vs NIH-3T3) A549 Blue: blue light 458 nm; for Photosensitizing index (PI) A549: dark vs blue light 458 nm
Experimental: (§1) Cells were grown in humidified incubators at 37° C. in 5% CO2. Murine MC3T3 osteoblast and NIH-3T3 fibroblast cells-used as non-tumor cell models-were cultured in a-MEM medium and DMEM medium supplemented with 10% fetal bovine serum (FBS) and 1% Penicillin/Streptomycin (P/S) antibiotics, respectively. Human T24 bladder, MGHU3 bladder, Scaber bladder, A549 lung, MCF7 breast, MiaPaCa2 pancreas cancer cells were cultured in DMEM medium supplemented with 10% FBS and 1% P/S antibiotics. […] Human Hela cervix and HepG2 liver cancer cells were cultured EMEM medium supplemented with 10% FBS and 1% P/S antibiotics.
(§2) MTT reagent (3-(4,5-dimethylthiazol-2-yl)-2,5-diphenyltetrazolium bromide) was used to determine cell death as originally described by Mosmann. Briefly, cells were seeded from 5,000 to 10,000 cells/well in 24-well plates (1 mL) depending on the cell type and allowed to attach overnight. The complexes were prepared in DMSO. The concentration of the complexes was calculated based on the elemental composition of the complexes determined by the elemental analyses. All cell viability experiments were carried out with a fixed concentration of 0.1% (v/v) DMSO. After 72 h of treatment, cells were incubated at 37° C. and 5% CO2 with 25 μL of MTT solution (5 mg/ml; Sigma-Aldrich) in 24-well plates for 3 to 4 h. After solubilization with 500 μL of DMSO, formazan was quantified spectrophotometrically with a microplate reader at 570 nm absorbance (ClarioSTAR, BMG LabTech). […] All the results were calculated from data obtained in at least three independent experiments performed in triplicate.
(§3) Two sets of experiments were conducted in parallel for each complex to be studied:
(§4) 1. The cells were incubated with the different complexes (in the dark) for 72 h.
(§5) 2. The cells were incubated for 8 h with the different complexes (in the dark), then irradiated for 10 min, followed by an incubation in the dark up to 72 h.

T24 bladder cancer cells = assay: Cell viability assay (MTT), dark and blue light; conditions: for Photosensitizing index (PI) T24: dark vs blue light 458 nm
Experimental: as §1, §2, §3, §4, §5

MCF7 breast cancer cells = assay: Cell viability assay (MTT), dark and blue light; conditions: for Photosensitizing index (PI) MCF7: dark vs blue light 458 nm
How it was run: (§6)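 Two parallel arms: continuous 72 h dark exposure, or 8 h preincubation followed by 10 min blue light at 458 nm (9.6 W LEDs) and further dark incubation to 72 h. Final DMSO 0.1% (v/v); MTT formazan read at 570 nm, triplicate runs repeated at least three times.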

[1] = test system: MGHU3 bladder cancer cells; assay: Cell viability assay (MTT), dark and blue light; conditions: for Photosensitizing index (PI) MGHU3: dark vs blue light 458 nm
How it was run: as §6

[2] = test system: Scaber bladder cancer cells; assay: Cell viability assay (MTT), dark and blue light; conditions: for Photosensitizing index (PI) Scaber: dark vs blue light 458 nm; for SI (vs NIH-3T3) Scaber Blue: blue light 458 nm
How it was run: as §6

[3] = test system: cancer cells (all tumor cell lines tested); assay: Cell viability assay (MTT), summary over the cancer cell lines tested; conditions: for PI values, mean over cancer cells / PI values, median over cancer cells: dark vs blue light 458 nm
Experimental: as §1, §2, §3, §4, §5

[4] = 8 h in the dark, blue light 458 nm 10 min, then dark up to 72 h, read-out: GI50 A549 Blue
[5] = in the dark, 72 h, read-out: GI50 A549 Dark
[6] = 8 h in the dark, blue light 458 nm 10 min, then dark up to 72 h, read-out: GI50 T24 Blue
[7] = in the dark, 72 h, read-out: GI50 T24 Dark
[8] = 8 h in the dark, blue light 458 nm 10 min, then dark up to 72 h, read-out: GI50 MCF7 Blue
[9] = in the dark, 72 h, read-out: GI50 MCF7 Dark
[10] = 8 h in the dark, blue light 458 nm 10 min, then dark up to 72 h, read-out: GI50 MGHU3 Blue
[11] = in the dark, 72 h, read-out: GI50 MGHU3 Dark
[12] = 8 h in the dark, blue light 458 nm 10 min, then dark up to 72 h, read-out: GI50 Scaber Blue
[13] = in the dark, 72 h, read-out: GI50 Scaber Dark

COC(=O)c1ccc2[n+](c1)[Ir-3]13([c]4ccccc4-2)([c]2ccccc2-c2ccc(C(=O)OC)c[n+]21)[c]1n(CCCNC(=O)CCCC[C@@H]2SC[C@@H]4NC(=O)N[C@@H]42)cc[n+]1-c1cccc[n+]13.F[P-](F)(F)(F)(F)F [I-e]
GI50 (A549 lung cancer cells; [4]): 21.6 µM
SI (vs NIH-3T3) A549 Blue (A549 lung cancer cells): 6.3
SI (vs NIH-3T3) A549 Dark (A549 lung cancer cells): >2.3
Photosensitizing index (PI) A549 (A549 lung cancer cells): 5.0
GI50 (A549 lung cancer cells; [5]): 107 µM
GI50 (T24 bladder cancer cells; [6]): 5.6 µM
Photosensitizing index (PI) T24 (T24 bladder cancer cells): 17.2
GI50 (T24 bladder cancer cells; [7]): 96 µM
GI50 (MCF7 breast cancer cells; [8]): 12.2 µM
SI (vs NIH-3T3) MCF7 Blue (MCF7 breast cancer cells; blue light 458 nm): 11.1
SI (vs MC3T3) MCF7 Dark (MCF7 breast cancer cells): 0.4
SI (vs NIH-3T3) MCF7 Dark (MCF7 breast cancer cells): >1.7
Photosensitizing index (PI) MCF7 (MCF7 breast cancer cells): 11.9
GI50 (MCF7 breast cancer cells; [9]): 145 µM
GI50 [1, 10]: 17.8 µM
SI (vs MC3T3) MGHU3 Blue ([1]; blue light 458 nm): 2.3
SI (vs NIH-3T3) MGHU3 Blue ([1]; blue light 458 nm): 7.8
SI (vs MC3T3) MGHU3 Dark ([1]; dark): <1
SI (vs NIH-3T3) MGHU3 Dark ([1]; dark): >2.5
Photosensitizing index (PI) MGHU3 [1]: >5.6
GI50 [1, 11]: > 100 µM
GI50 [2, 12]: 14.7 µM
SI (vs MC3T3) Scaber Dark [2]: <1
SI (vs NIH-3T3) Scaber Dark [2]: >2.5
Photosensitizing index (PI) Scaber [2]: >6.8
GI50 [2, 13]: > 100 µM
PI values, mean over cancer cells [3]: 8.4 fold
PI values, median over cancer cells [3]: 6.2 fold

F[P-](F)(F)(F)(F)F.O=C(CCCC[C@@H]1SC[C@@H]2NC(=O)N[C@@H]21)NCCCn1cc[n+]2[c]1[Ir-3]13([c]4ccccc4-c4ccc5ccccc5[n+]41)([c]1ccccc1-c1ccc4ccccc4[n+]13)[n+]1ccccc1-2 [I-g]
GI50 (A549 lung cancer cells; [4]): 1.5 µM
SI (vs NIH-3T3) A549 Blue (A549 lung cancer cells): 41.1
SI (vs MC3T3) A549 Dark (A549 lung cancer cells): 6.1
SI (vs NIH-3T3) A549 Dark (A549 lung cancer cells): 12.1
Photosensitizing index (PI) A549 (A549 lung cancer cells): 6.1
GI50 (A549 lung cancer cells; [5]): 9.1 µM
GI50 (T24 bladder cancer cells; [6]): 1.1 µM
SI (vs NIH-3T3) T24 Blue (T24 bladder cancer cells; blue light 458 nm): 58.1
Photosensitizing index (PI) T24 (T24 bladder cancer cells): 16.9
GI50 (T24 bladder cancer cells; [7]): 18.6 µM
GI50 (MCF7 breast cancer cells; [8]): 2.2 µM
SI (vs MC3T3) MCF7 Blue (MCF7 breast cancer cells; blue light 458 nm): 14.3
SI (vs NIH-3T3) MCF7 Blue (MCF7 breast cancer cells; blue light 458 nm): 28.0
SI (vs MC3T3) MCF7 Dark (MCF7 breast cancer cells): 4.0
Photosensitizing index (PI) MCF7 (MCF7 breast cancer cells): 6.3
GI50 (MCF7 breast cancer cells; [9]): 13.8 µM
GI50 [1, 10]: 4.3 µM
SI (vs NIH-3T3) MGHU3 Blue ([1]; blue light 458 nm): 14.3
SI (vs MC3T3) MGHU3 Dark ([1]; dark): 2.2
Photosensitizing index (PI) MGHU3 [1]: 5.9
GI50 [1, 11]: 25.4 µM
GI50 [2, 12]: 2.5 µM
SI (vs NIH-3T3) Scaber Blue [2]: 24.7
SI (vs MC3T3) Scaber Dark [2]: 3.9
Photosensitizing index (PI) Scaber [2]: 5.6
GI50 [2, 13]: 14.1 µM
selectivity for cancer cells over non-tumor cells, in words [3]: most selective effects under irradiated conditions
PI values, mean over cancer cells [3]: 7.5 fold
PI values, median over cancer cells [3]: 6.0 fold

F[P-](F)(F)(F)(F)F.O=C(CCCC[C@@H]1SC[C@@H]2NC(=O)N[C@@H]21)NCCCn1cc[n+]2[c]1[Ir-3]13([c]4ccccc4-c4c5ccccc5cc[n+]41)([c]1ccccc1-c1c4ccccc4cc[n+]13)[n+]1ccccc1-2 [I-h]
GI50 (A549 lung cancer cells; [4]): 0.8 µM and 0.6 µM
SI (vs MC3T3) A549 Dark (A549 lung cancer cells): 3.2
Photosensitizing index (PI) A549 (A549 lung cancer cells): 21.8
GI50 (A549 lung cancer cells; [5]): 13.1 µM
GI50 (T24 bladder cancer cells; [6]): 0.58 µM
Photosensitizing index (PI) T24 (T24 bladder cancer cells): 24.0
GI50 (T24 bladder cancer cells; [7]): 13.9 µM
GI50 (MCF7 breast cancer cells; [8]): 0.99 µM
SI (vs NIH-3T3) MCF7 Dark (MCF7 breast cancer cells): 8.6
Photosensitizing index (PI) MCF7 (MCF7 breast cancer cells): 12.0
GI50 (MCF7 breast cancer cells; [9]): 11.9 µM
GI50 [1, 10]: 1.6 µM
SI (vs MC3T3) MGHU3 Dark ([1]; dark): 1.8
Photosensitizing index (PI) MGHU3 [1]: 16.7
GI50 [1, 11]: 26.7 µM
GI50 [2, 12]: 1 µM
SI (vs NIH-3T3) Scaber Blue [2]: 10.4
SI (vs MC3T3) Scaber Dark [2]: 1.7
SI (vs NIH-3T3) Scaber Dark [2]: 4.1
Photosensitizing index (PI) Scaber [2]: 24.8
GI50 [2, 13]: 24.8 µM
PI values, mean over cancer cells [3]: 19.0 fold
PI values, median over cancer cells [3]: 19.3 fold
